# Measured values: ChEMBL document CHEMBL1201862, “PubChem BioAssay data set” (2004)
#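 Test compounds were applied to cells in 96-well plates for 48 hours at 5 doses. GI50 is the concentration that inhibits growth by half.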 Active and inactive are the calls of the source. Cut-off read from the data, not from the text of the source: active = GI50 up to about 1.1 µM and inactive = higher.
# Legend:
# Assay in all cases: NCI-60 cell line screen, 48 h
# ACHN = tested on: ACHN
# COLO 205 = tested on: COLO 205
# HCC 2998 = tested on: HCC 2998
# NCI-H23 = tested on: NCI-H23
# Malme-3M = tested on: Malme-3M
# SW-620 = tested on: SW-620
# SK-MEL-28 = tested on: SK-MEL-28
# OVCAR-8 = tested on: OVCAR-8
# RXF 393 = tested on: RXF 393
# HCT-15 = tested on: HCT-15
# HT-29 = tested on: HT-29
# SR = tested on: SR
# SF-295 = tested on: SF-295
# HL-60 = tested on: HL-60
# HCT-116 = tested on: HCT-116
# CCRF-CEM = tested on: CCRF-CEM
# LOX IMVI = tested on: LOX IMVI
# HOP-92 = tested on: HOP-92
SMILES,GI50 (ACHN),GI50 (COLO 205),GI50 (HCC 2998),GI50 (NCI-H23),GI50 (Malme-3M),GI50 (SW-620),GI50 (SK-MEL-28),GI50 (OVCAR-8),GI50 (RXF 393),GI50 (HCT-15),GI50 (HT-29),GI50 (SR),GI50 (SF-295),GI50 (HL-60),GI50 (HCT-116),GI50 (CCRF-CEM),GI50 (LOX IMVI),GI50 (HOP-92)
C[N+](C)(C)C.FC(F)(F)C1(C(F)(F)F)O[SiH-]2(OC(C(F)(F)F)(C(F)(F)F)c3ccccc32)c2ccccc21,22.8 µM (inactive),20 µM (inactive),19.2 µM (inactive),11 µM (inactive),19.5 µM (inactive),18 µM (inactive),26.2 µM (inactive),15.3 µM (inactive),13 µM (inactive),10.4 µM,11.2 µM (inactive),14.5 µM (inactive),4.81 µM (inactive),,,,,
COC(=O)c1nc(N)nc(C(=O)OC)c1C(=O)c1ccccc1,> 100 µM (inactive),,> 100 µM (inactive),> 100 µM (inactive),> 100 µM (inactive),> 100 µM (inactive),> 100 µM (inactive),> 100 µM (inactive),> 100 µM (inactive),> 100 µM,> 100 µM (inactive),> 100 µM (inactive),> 100 µM (inactive),> 100 µM (inactive),> 100 µM (inactive),> 100 µM (inactive),> 100 µM (inactive),96.8 µM (inactive)
CC1=CC(C)(C)N=C2SC(c3ccc(N)cc3)=NN12,69.3 µM (inactive),42.8 µM (inactive),> 100 µM (inactive),> 81.1 µM (inactive),> 100 µM (inactive),> 41 µM (inactive),> 100 µM (inactive),55.7 µM (inactive),> 100 µM (inactive),31.6 µM,32.1 µM (inactive),46.9 µM (inactive),> 91.8 µM (inactive),18.1 µM (inactive),41 µM (inactive),27.9 µM (inactive),> 58.5 µM (inactive),51.8 µM (inactive)
COc1ccc(N2C(=O)[C@@H]3[C@@H]4CC(C)CC[C@@H]4c4c([nH]c5ccccc45)[C@@H]3C2=O)cc1 (stereo partly drawn),7.36 µM (inactive),33 µM (inactive),13.5 µM (inactive),15.5 µM (inactive),34.4 µM (inactive),13.1 µM (inactive),36 µM (inactive),12.8 µM (inactive),,15.3 µM,47.4 µM (inactive),12.6 µM (inactive),12.4 µM (inactive),29.1 µM (inactive),6.44 µM (inactive),24.2 µM (inactive),10.5 µM (inactive),5.92 µM (inactive)
O=C(Nc1c(Cl)cc([N+](=O)[O-])cc1Cl)C(=O)C(C1OC(=O)c2ccccc21)[N+](=O)[O-] (stereo not drawn),> 100 µM (inactive),> 100 µM (inactive),> 100 µM (inactive),> 100 µM (inactive),> 100 µM (inactive),> 100 µM (inactive),> 100 µM (inactive),> 100 µM (inactive),> 100 µM (inactive),> 100 µM,> 100 µM (inactive),> 100 µM (inactive),> 100 µM (inactive),> 100 µM (inactive),> 100 µM (inactive),> 100 µM (inactive),81.7 µM (inactive),15.1 µM (inactive)
CC(C)=CCCC(C)[C@H]1CC(O)C2(C)C3=CCC4C(C)(C)[C@@H](O)CC[C@]4(C)C3=CC[C@]12C (stereo partly drawn),,4.93 µM (inactive),,3.72 µM (inactive),13.5 µM (inactive),3.89 µM (inactive),,1.8 µM (inactive),2.92 µM (inactive),5.01 µM,2.72 µM (inactive),11.6 µM (inactive),2.24 µM (inactive),3.69 µM (inactive),2.4 µM (inactive),5.25 µM (inactive),0.0902 µM (active),3.27 µM (inactive)
